Drawing on US12084443B2, “Process of preparing a PD-1/PD-L1 inhibitor” (Incyte Corporation, priority 2020, dated 2024), this text covers IC50 for one compound.

This test has as its target T1, PD-1/PD-L1 protein/protein interaction (Homo sapiens, UniProt Q9NZQ7).
T1 construct: Recombinant human PD-L1 protein (19-238) with a His-tag at the C-terminus; purchased AcroBiosystems PD1-H5229 (PD-L1); PD1-H5257 (PD-1)
Nature of the test: PD-1/PD-L1 Homogeneous Time-Resolved Fluorescence (HTRF) binding assay. Particulars: recombinant human PD-1 (25-167) Fc tag and PD-L1 (19-238) His-tag, 25° C., PBS pH 7.4. As to the method:
Example A. PD-1/PD-L1 Homogeneous Time-Resolved Fluorescence (HTRF) Binding Assay The assays were conducted in a standard black 384-well polystyrene plate with a final volume of 20 μL. Inhibitors were first serially diluted in DMSO and then added to the plate wells before the addition of other reaction components. The final concentration of DMSO in the assay was 1%. The assays were carried out at 25° C. in the PBS buffer (pH 7.4) with 0.05% Tween-20 and 0.1% BSA. Recombinant human PD-L1 protein (19-238) with a His-tag at the C-terminus was purchased from AcroBiosystems (PD1-H5229). Recombinant human PD-1 protein (25-167) with Fc tag at the C-terminus was also purchased from AcroBiosystems (PD1-H5257). PD-L1 and PD-1 proteins were diluted in the assay buffer and 10 μL was added to the plate well. Plates were centrifuged and proteins were preincubated with inhibitors for 40 minutes. The incubation was followed by the addition of 10 μL of HTRF detection buffer supplemented with Europium cryptate-labeled anti-human IgG (PerkinElmer-AD0212) specific for Fc and anti-His antibody conjugated to SureLight®-Allophycocyanin (APC, PerkinElmer-AD0059H). After centrifugation, the plate was incubated at 25° C. for 60 min. before reading on a PHERAstar FS plate reader (665 nm/620 nm ratio). […]

T1 sequence (Q9NZQ7 19-238): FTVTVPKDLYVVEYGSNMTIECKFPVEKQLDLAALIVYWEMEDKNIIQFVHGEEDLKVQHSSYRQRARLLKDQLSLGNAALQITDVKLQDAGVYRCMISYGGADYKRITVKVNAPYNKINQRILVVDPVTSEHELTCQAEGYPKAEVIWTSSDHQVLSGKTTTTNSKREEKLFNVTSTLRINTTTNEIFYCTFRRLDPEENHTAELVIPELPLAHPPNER

As for `Cc1c(Nc2nccc3cc(CN4CC[C@@H](O)C4)cnc23)cccc1-c1cccc(-c2nc3cc(CN4CC[C@@H](C(=O)O)C4)cc(C#N)c3o2)c1C` [Compound 1, (R)-1-((7-cyano-2-(3′-((3-(((R)-3-hydroxypyrrolidin-1-yl)methyl)-1,7-naphthyridin-8-yl)amino)-2,2′-dimethyl-[1,1′-biphenyl]-3-yl)benzo[d]oxazol-5-yl)methyl)pyrrolidine-3-carboxylic acid], the IC50 was at most 10 nM.
